Consider 25 molecules from PubChem BioAssay AID248 (DTP/NCI, 2004).

The structures appear in SMILES notation. “And” between values parts separate entries of the source, which are not always exact repeats. Equal entries are not always repeated. Inconclusive results and toxic doses are left out.

For the experiment, the system named is L1210 leukemia ip in BDF1 mice, survival T/C. The experiment in a line: NCI In Vivo Anticancer Drug Screen. Data for tumor model L1210 Leukemia (intraperitoneal) in B6D2F1 (BDF1) mice. To be noted: endpoint: mean survival time, higher = longer survival. The method, boiled down: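 Survival endpoint. Drug-treated group vs vehicle group, expressed as T divided by C. Tumor passaged by transplantation.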

Where [1] appears, read: dose: 100.0 mg/kg/injection, schedule: Q04DX002 (ip), vehicle: Klucel (hydroxypropylcellulose) (HPC).
[2] abbreviates: dose: 200.0 mg/kg/injection, schedule: Q04DX002 (ip), vehicle: Klucel (hydroxypropylcellulose) (HPC).
The mark [3] stands for this setting: dose: 400.0 mg/kg/injection, schedule: Q04DX002 (ip), vehicle: Klucel (hydroxypropylcellulose) (HPC).
Where [4] appears, read: dose: 50.0 mg/kg/injection, schedule: Q01DX009 (ip), vehicle: Klucel (hydroxypropylcellulose) (HPC).
Setting [5] is: dose: 100.0 mg/kg/injection, schedule: Q01DX009 (ip), vehicle: Klucel (hydroxypropylcellulose) (HPC).
[6] abbreviates: dose: 200.0 mg/kg/injection, schedule: Q01DX009 (ip), vehicle: Klucel (hydroxypropylcellulose) (HPC).
[7] abbreviates: dose: 100.0 mg/kg/injection, schedule: Q01DX001 (ip), vehicle: Klucel (hydroxypropylcellulose) (HPC).
The mark [8] stands for this setting: dose: 200.0 mg/kg/injection, schedule: Q01DX001 (ip), vehicle: Klucel (hydroxypropylcellulose) (HPC).
Where [9] appears, read: dose: 400.0 mg/kg/injection, schedule: Q01DX001 (ip), vehicle: Klucel (hydroxypropylcellulose) (HPC).
Setting [10] is: dose: 50.0 mg/kg/injection, schedule: Q01DX001 (ip), vehicle: saline.
[11] abbreviates: dose: 100.0 mg/kg/injection, schedule: Q01DX001 (ip), vehicle: saline.
Setting [12] is: dose: 200.0 mg/kg/injection, schedule: Q01DX001 (ip), vehicle: saline.
The mark [13] stands for this setting: dose: 400.0 mg/kg/injection, schedule: Q01DX001 (ip), vehicle: saline.
Where [14] appears, read: dose: 50.0 mg/kg/injection, schedule: Q01DX009 (ip), vehicle: saline.
Where [15] appears, read: dose: 100.0 mg/kg/injection, schedule: Q01DX009 (ip), vehicle: saline.
The mark [16] stands for this setting: dose: 100.0 mg/kg/injection, schedule: Q04DX003 (ip), vehicle: Klucel (hydroxypropylcellulose) (HPC).
[17] abbreviates: dose: 200.0 mg/kg/injection, schedule: Q04DX003 (ip), vehicle: Klucel (hydroxypropylcellulose) (HPC).
The mark [18] stands for this setting: dose: 400.0 mg/kg/injection, schedule: Q04DX003 (ip), vehicle: Klucel (hydroxypropylcellulose) (HPC).
[19] abbreviates: dose: 25.0 mg/kg/injection, schedule: Q01DX009 (ip), vehicle: Klucel (hydroxypropylcellulose) (HPC).

Turning to `O=C(Nc1ccccc1-c1ccccc1)c1ccc(Cl)cc1Cl`, the T/C under setting [1] was 104 % of control, the T/C under setting [2] was 93 % of control and the T/C under setting [3] is 101 % of control.
For `O=C1C(C2(O)C(=O)Nc3ccccc32)CCCC1C1(O)C(=O)Nc2ccccc21` (configuration not stated), the T/C was 97 % of control under setting [4], 104 % of control under setting [5] and 101 % of control under setting [6].
Take `CCOC(=O)N1CCN(C(=O)OCC)CC1`: the T/C is, setting by setting: (dose: 50.0 mg/kg/injection, schedule: Q01DX009 (ip), vehicle: saline with Tween-80) 95 % of control; (dose: 100.0 mg/kg/injection, schedule: Q01DX009 (ip), vehicle: saline with Tween-80) 95 % of control; (dose: 200.0 mg/kg/injection, schedule: Q01DX009 (ip), vehicle: saline with Tween-80) 95 % of control.
Take `C[CH2][Pb]([CH2]C)([CH2]C)[O]C(=O)CBr`: the T/C was 92 % of control (dose: 0.78 mg/kg/injection, schedule: Q01DX009 (ip), vehicle: Klucel (hydroxypropylcellulose) (HPC)); 103 % of control (dose: 1.56 mg/kg/injection, schedule: Q01DX009 (ip), vehicle: Klucel (hydroxypropylcellulose) (HPC)); 98 % of control and 92 % of control (dose: 3.12 mg/kg/injection, schedule: Q01DX009 (ip), vehicle: Klucel (hydroxypropylcellulose) (HPC)); 93 % of control (dose: 3.12 mg/kg/injection, schedule: Q04DX002 (ip), vehicle: Klucel (hydroxypropylcellulose) (HPC)); 90 % of control (dose: 6.25 mg/kg/injection, schedule: Q04DX002 (ip), vehicle: Klucel (hydroxypropylcellulose) (HPC)); 98 % of control and 106 % of control (dose: 12.5 mg/kg/injection, schedule: Q04DX002 (ip), vehicle: Klucel (hydroxypropylcellulose) (HPC)).
For `COc1ccc2c(c1)CCC1C2CCC2C(O)CCC(=O)C21` (configuration not stated), the T/C is 102 % of control (dose: 50.0 mg/kg/injection, schedule: Q01DX001 (ip), vehicle: Klucel (hydroxypropylcellulose) (HPC)); 102 % of control under setting [7]; 98 % of control under setting [8].
For `CCCCCCCCCCCCCOc1ccc2ccccc2c1`, the T/C under setting [7] is 326 % of control, the T/C under setting [8] is 165 % of control and the T/C under setting [9] was 92 % of control.
As to `COc1ccc(CN2CCCN(Cc3ccc(OC)cc3OC)C2c2ccccn2)c(OC)c1`, the T/C under setting [10] is 101 % of control, the T/C under setting [11] was 95 % of control, the T/C under setting [12] is 91 % of control and the T/C under setting [13] is 89 % of control.
`ClC/C=[CH]/[Sn]([c]1ccccc1)([c]1ccccc1)[c]1ccccc1`: the T/C is 112 % of control under setting [14] and 116 % of control under setting [15].
Turning to `NNC(=O)C(Sc1ccccc1)c1ccccc1` (configuration not stated), the T/C reads like this: under setting [16], 95 % of control; under setting [17], 98 % of control; under setting [18], 101 % of control.
As to `O=c1cc[nH]c2c([N+](=O)[O-])cccc12`, the T/C under setting [11] is 99 % of control and the T/C under setting [12] was 96 % of control.
Turning to `O=C(/C=C/c1ccccc1)N/N=C/c1ccncc1`, the T/C (dose: 100.0 mg/kg/injection, schedule: Q04DX002 (ip), vehicle: saline) is 91 % of control; the T/C (dose: 200.0 mg/kg/injection, schedule: Q04DX002 (ip), vehicle: saline) is 108 % of control; the T/C (dose: 400.0 mg/kg/injection, schedule: Q04DX002 (ip), vehicle: saline) was 112 % of control.
Regarding `CC1=CC(C)C(=O)N(CC(C)N2CCCC2)C(C)=C1` (configuration not stated), the T/C (dose: 75.0 mg/kg/injection, schedule: Q01DX001 (ip), vehicle: carboxymethylcellulose (CMC)) is 102 % of control.
Take `O=NN(CC(=O)O)c1cccnc1`: the T/C is, setting by setting: under setting [19], 98 % of control; under setting [4], 101 % of control; under setting [5], 107 % of control.
For `NC(N)=N/N=C\c1cccc(OCc2ccccc2)c1`, the T/C reads like this: (dose: 15.0 mg/kg/injection, schedule: Q01DX Z (oral), vehicle: saline) 94 % of control; (dose: 30.0 mg/kg/injection, schedule: Q01DX Z (oral), vehicle: saline) 89 % of control; (dose: 60.0 mg/kg/injection, schedule: Q01DX Z (oral), vehicle: saline) 93 % of control; (dose: 120.0 mg/kg/injection, schedule: Q01DX Z (oral), vehicle: saline) 94 % of control.
Regarding `CCN(CC)CC(=O)NCC(CCN1CCCCC1)(CC(C)C)c1cccc2ccccc12` (configuration not stated), the T/C is 102 % of control (dose: 25.0 mg/kg/injection, schedule: Q01DX009 (ip), vehicle: saline); 105 % of control under setting [14]; 114 % of control under setting [15].
As to `O=C(NC1CCCCC1)OC/C=C\c1ccccc1`, the T/C is, setting by setting: under setting [5], 101 % of control; under setting [16], 101 % of control; under setting [6], 98 % of control; under setting [17], 96 % of control; (dose: 400.0 mg/kg/injection, schedule: Q01DX009 (ip), vehicle: Klucel (hydroxypropylcellulose) (HPC)) 109 % of control; under setting [18], 102 % of control.
For `O=c1[nH]cnc2c1ncn2C1OCC(O)C(O)C1O` (configuration not stated), the T/C by setting is: under setting [10], 105 % of control; under setting [11], 101 % of control and 105 % of control; under setting [12], 119 % of control and 109 % of control; under setting [13], 103 % of control.
Regarding `CCCCCCNC(=O)COc1ccc(Cl)cc1`, the T/C by setting is: under setting [1], 97 % of control; under setting [2], 93 % of control; under setting [3], 101 % of control.
Turning to `CC/C(=C\c1ccccc1)[N+](=O)[O-]`, the T/C under setting [19] was 102 % of control; the T/C (dose: 25.0 mg/kg/injection, schedule: Q04DX003 (ip), vehicle: Klucel (hydroxypropylcellulose) (HPC)) was 97 % of control; the T/C under setting [4] was 98 % of control; the T/C (dose: 50.0 mg/kg/injection, schedule: Q04DX003 (ip), vehicle: Klucel (hydroxypropylcellulose) (HPC)) was 90 % of control; the T/C under setting [16] is 103 % of control.
Take `COc1ccc([N+](=O)[O-])cc1[I+]c1cc([N+](=O)[O-])ccc1OC`: the T/C was 111 % of control under setting [10], 90 % of control under setting [11], 96 % of control under setting [12] and 90 % of control under setting [13].
Take `COC(=O)CCC1CCC(=O)C1` (configuration not stated): the T/C runs as follows: (dose: 37.5 mg/kg/injection, schedule: Q04DX002 (ip), vehicle: saline with Tween-80) 95 % of control; (dose: 75.0 mg/kg/injection, schedule: Q04DX002 (ip), vehicle: saline with Tween-80) 95 % of control; (dose: 150.0 mg/kg/injection, schedule: Q04DX002 (ip), vehicle: saline with Tween-80) 98 % of control; (dose: 300.0 mg/kg/injection, schedule: Q04DX002 (ip), vehicle: saline with Tween-80) 95 % of control.
As for `O=CC1OC(c2ccccc2)OC2COC(c3ccccc3)OC12` (configuration not stated), the T/C reads like this: under setting [7], 103 % of control; under setting [8], 97 % of control; under setting [9], 93 % of control.
`S=C(Nc1ccccc1)N1CC1`: the T/C is 96 % of control under setting [7]; 91 % of control (dose: 100.0 mg/kg/injection, schedule: Q04DX003 (ip), vehicle: saline with Tween-80); 98 % of control under setting [8]; 92 % of control (dose: 200.0 mg/kg/injection, schedule: Q04DX003 (ip), vehicle: saline with Tween-80); 94 % of control under setting [9]; 90 % of control (dose: 400.0 mg/kg/injection, schedule: Q04DX003 (ip), vehicle: saline with Tween-80).
As for `Cn1cnc([N+](=O)[O-])c1/N=C/c1ccccc1`, the T/C runs as follows: (dose: 50.0 mg/kg/injection, schedule: Q01DX005 (ip), vehicle: saline) 98 % of control; (dose: 100.0 mg/kg/injection, schedule: Q01DX005 (ip), vehicle: saline) 100 % of control; (dose: 200.0 mg/kg/injection, schedule: Q01DX005 (ip), vehicle: saline) 104 % of control.
With `Cc1ccc(C(=O)C2CC2c2ccccc2)cc1` (configuration not stated), the T/C under setting [16] is 101 % of control, the T/C under setting [17] is 101 % of control and the T/C under setting [18] is 95 % of control.
